Experimental data from US12637471B2, “Heterocyclic compounds, compositions, methods of preparation and uses thereof” (Organon R&D Finland Ltd, priority 2021, dated 2026).

Legend:
Format in all cases: biochemical
[1] = target: T1, Recombinant human AKR1C3 (17β-HSD5) protein (Homo sapiens, UniProt P42330); test: Inhibition of AKR1C3 (17β-hydroxysteroid dehydrogenase type 5) enzyme, fluorescence assay; conditions: inhibitor at 500 nM
T1 construct: made in house; host or cells: E. coli
T1 sequence (P42330 1-323): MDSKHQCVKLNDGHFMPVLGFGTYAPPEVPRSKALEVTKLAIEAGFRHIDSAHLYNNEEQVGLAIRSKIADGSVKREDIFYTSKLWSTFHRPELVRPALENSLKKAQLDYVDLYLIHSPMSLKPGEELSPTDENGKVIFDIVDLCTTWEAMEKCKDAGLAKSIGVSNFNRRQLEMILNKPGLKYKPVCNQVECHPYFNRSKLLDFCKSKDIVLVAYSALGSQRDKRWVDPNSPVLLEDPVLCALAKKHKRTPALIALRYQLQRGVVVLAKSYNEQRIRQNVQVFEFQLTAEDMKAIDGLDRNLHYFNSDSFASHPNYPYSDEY
Description: Inhibition of AKR1C3 (17β-Hydroxysteroid Dehydrogenase Type 5) Enzyme
Recombinant human AKR1C3 (17β-HSD5) protein (GenBank Accession No. NM_003739.6) produced in E. coli was used for screening. Recombinant protein (27 nM/1 μg/ml) was incubated in 20 mM KH2PO4, 1 mM EDTA, complete protease inhibitor cocktail, pH 7.4 with 1 μM 9-acetyl-2,3,6,7-tetrahydro-1H,5H,11H-pyrano[2,3-f]pyrido[3,2,1-ij]quinolin-11-one and 1 mM NADPH for 60 to 120 min at RT, in the presence of the potential inhibitor at 500 nM concentration. Inhibitor stock solutions were prepared in DMSO. Final concentration of DMSO was adjusted to 1% in all samples. The samples were analysed by fluorescent measurement with Tecan Spark microplate reader at wavelengths 420 nm for excitation and 510 nm for emission. Samples were evaluated against standards of 9-(1-hydroxyethyl)-2,3,6,7-tetrahydro-1H,5H,11H-pyrano[2,3-f]pyrido[3,2,1-ij]quinolin-11-one at concentrations 1 μM-10 nM. Background fluorescence was reduced from all the samples and standards. The concentrations of formed product were calculated from the standard curve with Tecan Spark Magellan software. The formed product concentrations were used to calculate conversion percentages. The inhibition percentages for the samples were calculated from the conversion percentages.
Inhibition percentages of samples were calculated using following formula: […]

[2] = target: T2, 17β-Hydroxysteroid Dehydrogenase Type 2 Enzyme (17β-HSD2) (Homo sapiens, UniProt P37059); test: Inhibition of the 17β-hydroxysteroid dehydrogenase type 2 enzyme, 3H-testosterone conversion; conditions: inhibitor at 10 μM
T2 construct: made in house; host or cells: Sf-9 insect cells (baculovirus)
T2 sequence (P37059 1-387): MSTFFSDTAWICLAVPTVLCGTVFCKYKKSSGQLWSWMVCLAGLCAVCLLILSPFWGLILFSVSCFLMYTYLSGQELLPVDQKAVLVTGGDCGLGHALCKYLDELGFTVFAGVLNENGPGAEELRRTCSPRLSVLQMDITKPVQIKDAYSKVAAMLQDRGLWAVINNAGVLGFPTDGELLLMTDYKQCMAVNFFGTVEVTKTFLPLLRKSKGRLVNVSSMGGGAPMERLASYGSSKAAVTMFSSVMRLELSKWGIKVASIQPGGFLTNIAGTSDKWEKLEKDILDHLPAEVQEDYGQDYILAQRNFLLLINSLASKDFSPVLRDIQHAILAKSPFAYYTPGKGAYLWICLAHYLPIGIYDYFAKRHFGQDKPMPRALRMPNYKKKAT
Description: Inhibition of the 17β-Hydroxysteroid Dehydrogenase Type 2 Enzyme
Recombinant human 173-HSD2 protein (GenBank Accession No. NM_002153.3) produced in Sf-9 insect cells with baculovirus was used for screening.
Recombinant protein (105 nM/4.5 μg/ml) was incubated in 20 mM KH2PO4 pH 8.5, 1 mM EDTA, complete protease inhibitor cocktail, 1 mM NAD with 56.25 nM testosterone (including ^3H-labelled testosterone) for 30 min at RT, in the presence of the potential inhibitor at 10 μM concentration. Inhibitor stock solutions were prepared in DMSO. Final concentration of DMSO was adjusted to 1% in all samples. The enzyme reaction was stopped by addition of 10% trichloroacetic acid (final concentration 1%). Samples were filtrated through […] filtration plate. Analyses of samples was done with Waters Acquity UPLC H-class equipped with XBridge C18 column and XBridge VanGuard C18 guard column. Acetonitrile: 0.1% formic acid in water (42/58 v/v) with flow of 1.2 ml/min was used for mobile phase. The eluent was mixed with scintillant and the radioactivity was monitored in the eluate by a Scintillation Analyser. The conversion percentage of tritiated substrate (testosterone) to product tritiated (androstenedione) for each sample was determined by the relative percentages of substrate and product in the chromatogram. The inhibition percentages of samples were calculated using following formula: […]

[3] = target: T3, Recombinant human aldo-keto reductase family 1 member C2 (AKR1C2) protein (Homo sapiens, UniProt P52895); test: Inhibition of the aldo-keto reductase family 1 member C2, 3H-dihydrotestosterone conversion; conditions: inhibitor at 10 μM
T3 construct: made in house; host or cells: Sf-9 insect cells (baculovirus)
T3 sequence (P52895 1-323): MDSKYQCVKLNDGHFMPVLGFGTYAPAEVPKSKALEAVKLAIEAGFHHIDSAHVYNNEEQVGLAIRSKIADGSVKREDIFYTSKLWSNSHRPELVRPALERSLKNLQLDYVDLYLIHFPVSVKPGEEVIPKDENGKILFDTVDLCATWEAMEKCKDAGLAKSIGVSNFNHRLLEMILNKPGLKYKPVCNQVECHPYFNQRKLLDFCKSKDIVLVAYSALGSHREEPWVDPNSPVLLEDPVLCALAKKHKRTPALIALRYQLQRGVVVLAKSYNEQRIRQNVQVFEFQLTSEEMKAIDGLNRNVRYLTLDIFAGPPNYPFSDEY
Description: Inhibition of the Aldo-Keto Reductase Family 1 Member C2
Recombinant human aldo-keto reductase family 1 member C2 (AKR1C2) protein (GenBank Accession No. NM_001354.6) produced in Sf-9 insect cells with baculovirus was used for screening. Recombinant protein (13.6 nM/0.5 μg/ml) was incubated in 20 mM KH2PO4 pH 7.4, 1 mM EDTA, complete protease inhibitor tablet, 1 mM NADPH with 6.25 nM ^3H-labelled dihydrotestosterone for 45 min at +37° C., in the presence of the potential inhibitor at 10 μM concentration. Inhibitor stock solutions were prepared in DMSO. Final concentration of DMSO was adjusted to 1% in all samples. The enzyme reaction was stopped by addition of 10% trichloroacetic acid (final concentration 1%). Samples were filtrated through […] filtration plate (Merck). Analyses of samples was done with Waters Acquity UPLC H-class equipped with XBridge C18 column and XBridge VanGuard C18 guard column. Acetonitrile: 0.1% formic acid in water (42/58 v/v) with flow of 1.2 ml/min was used for mobile phase. The eluent was mixed with scintillant and the radioactivity was monitored in the eluate by a Scintillation Analyser. The conversion percentage of triated substrate (dihydrotestosterone) to tritiated product (5α-androstane-3α,17β-diol) for each sample was determined by the relative percentages of substrate and product in the chromatogram. The inhibition percentages of samples were calculated using following formula: […]

| inhibition at 0.5 µM [1] [%] | inhibition at 10 µM [2] [%] | inhibition at 10 µM [3] [%] | SMILES |
| --- | --- | --- | --- |
| 97 | 7 | 16 | N#CC(=C1CCN(C(=O)N2CCC(CO)CC2)CC1)c1ccc(F)c(F)c1 [Compound 33, 2-(3,4-difluorophenyl)-2-(1-(4-(hydroxymethyl)piperidine-1-carbonyl)piperidin-4-ylidene)acetonitrile] |
| 98 | 23 | 6 | N#CC(=C1CCN(C(=O)N2CCc3nocc3C2)CC1)c1ccc(F)cn1 [Compound 84, 2-(5-fluoropyridin-2-yl)-2-(1-(4,5,6,7-tetrahydroisoxazolo[4,3-c]pyridine-5-carbonyl)piperidin-4-ylidene)acetonitrile] |
| 94 | -3 | 10 | N#CC(=C1CCN(C(=O)N2CC(C#N)C2)CC1)c1ccc(F)c(F)c1 [Compound 36, 1-(4-(cyano(3,4-difluorophenyl)methylene)piperidine-1-carbonyl)azetidine-3-carbonitrile] |
| 93 | 17 | 2 | CCOC1CCN(C(=O)N2CCC(=C(C#N)c3ccc(C(F)(F)F)cc3)CC2)CC1 [Compound 128, 2-(1-(4-ethoxypiperidine-1-carbonyl)piperidin-4-ylidene)-2-(4-(trifluoromethyl)phenyl) acetonitrile] |
| 94 | 23 | 13 | COCC1CCN(C(=O)N2CCC(=C(C#N)c3ccc(Cl)s3)CC2)CC1 [Compound 75, 2-(5-chlorothiophen-2-yl)-2-(1-(4-(methoxymethyl)piperidine-1-carbonyl)piperidin-4-ylidene)acetonitrile] |
| 97 | 9 | 2 | N#CC(=C1CCN(C(=O)N2CCn3nncc3C2)CC1)c1ccc(Cl)cn1 [Compound 163, 2-(5-chloropyridin-2-yl)-2-(1-(4,5,6,7-tetrahydro-[1,2,3]triazolo[1,5-a]pyrazine-5-carbonyl)piperidin-4-ylidene)acetonitrile] |
| 98 | 22 | 6 | N#CC(=C1CCN(C(=O)N2CCC(CO)CC2)CC1)c1cccc2[nH]ncc12 [Compound 49, 2-(1-(4-(hydroxymethyl)piperidine-1-carbonyl)piperidin-4-ylidene)-2-(1H-indazol-4-yl)acetonitrile] |
| 98 | 10 | 16 | CN(C(=O)N1CCC(=C(C#N)c2ccc(Cl)cc2)CC1)C1CCOCC1 [Compound 69, 4-((4-chlorophenyl)(cyano)methylene)-N-methyl-N-(tetrahydro-2H-pyran-4-yl)piperidine-1-carboxamide] |
| 96 | 24 | 17 | N#CC(=C1CCN(C(=O)N2Cc3ccccc3C2)CC1)c1ccc(F)cc1 [Compound 11, 2-(4-fluorophenyl)-2-(1-(isoindoline-2-carbonyl)piperidin-4-ylidene)acetonitrile] |
| 92 | 4 | 3 | N#CC(=C1CCN(C(=O)N2CCC(C(F)(F)F)CC2)CC1)c1ccc(Cl)cn1 [Compound 135, 2-(5-chloropyridin-2-yl)-2-(1-(4-(trifluoromethyl)piperidine-1-carbonyl)piperidin-4-ylidene)acetonitrile] |
| 95 | 17 | 8 | N#CC(=C1CCN(C(=O)N2CCC(CCCO)CC2)CC1)c1ccc(Cl)cc1 [Compound 132, 2-(4-chlorophenyl)-2-(1-(4-(3-hydroxypropyl)piperidine-1-carbonyl)piperidin-4-ylidene)acetonitrile] |
| 94 | 9 | 7 | N#CC(=C1CCN(C(=O)N2CCC(CCO)CC2)CC1)c1ccc(C(F)(F)F)cc1 [Compound 149, 2-(1-(4-(2-hydroxyethyl)piperidine-1-carbonyl)piperidin-4-ylidene)-2-(4-(trifluoromethyl)phenyl)acetonitrile] |
| 92 | 21 | 19 | COCC1CCN(C(=O)N2CCC(=C(C#N)c3ccc(F)cc3F)CC2)CC1 [Compound 73, 2-(2,4-difluorophenyl)-2-(1-(4-(methoxymethyl)piperidine-1-carbonyl)piperidin-4-ylidene)acetonitrile] |
| 97 | 15 | 7 | N#CC(=C1CCN(C(=O)N2CCC(CO)CC2)CC1)c1ccc(OC(F)(F)F)cc1 [Compound 53, 2-(1-(4-(hydroxymethyl)piperidine-1-carbonyl)piperidin-4-ylidene)-2-(4-(trifluoromethoxy)phenyl)acetonitrile] |
| 97 | 8 | 7 | N#CC(=C1CCN(C(=O)N2CCC(O)CC2)CC1)c1n[nH]c2ccc(F)cc12 [Compound 94, 2-(5-fluoro-1H-indazol-3-yl)-2-(1-(4-hydroxypiperidine-1-carbonyl)piperidin-4-ylidene)acetonitrile] |
| 96 | 26 | 18 | N#CC(=C1CCN(C(=O)N2CCc3sccc3C2)CC1)c1cc(F)cc(F)c1 [Compound 51, 2-(3,5-difluorophenyl)-2-(1-(4,5,6,7-tetrahydrothieno[3,2-c]pyridine-5-carbonyl)piperidin-4-ylidene)acetonitrile] |
